The record followed here is patent US10174067B2, “Type of cytidine derivative and application thereof” (priority 2014, dated 2019).

Molecules are shown by their SMILES.

The nature of this data set: in vivo. Particulars: female, mouse, in vivo, ip. The essentials:
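MTD, the dose without mortality, body-weight loss over 10% from Day 0 or marked adverse signs, was found by stepwise up/down single intraperitoneal dosing of female SPF ICR mice. Vehicle: ethanol:Cremophor EL:saline 5:5:90. Animals weighed daily and clinically checked twice daily for up to 14 days.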

Compound `CCCCOC(=O)Nc1nc(=O)n([C@@H]2O[C@H](COC(=O)Cn3cnc([N+](=O)[O-])c3)C(O)C2(F)F)cc1I` (some centres unmarked) [Compound G12] yielded an MTD at 7 days of 400 mg/kg.
In the case of `O=C(COc1nc(Cl)c(Cl)cc1Cl)OC[C@H]1O[C@@H](n2cc(Br)c(NC(=O)OCc3ccccc3)nc2=O)C(F)(F)C1O` (some centres unmarked) [Compound G10] it was 400 mg/kg.
